Measured values published in PubChem BioAssay AID248 (DTP/NCI, 2004).
Values joined by “and” are separate entries in the source; they are usually repeats but may differ in a detail not shown here. Equal entries are not always repeated. Toxic doses and inconclusive results are not listed. Rule as the data show it: active = T/C of 150% or more; inactive = T/C below 125%.

System: L1210 leukemia ip in BDF1 mice, survival T/C
Assay: NCI In Vivo Anticancer Drug Screen. Data for tumor model L1210 Leukemia (intraperitoneal) in B6D2F1 (BDF1) mice
Details: endpoint: mean survival time, higher = longer survival
Procedure, shortened: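 Transplantable tumor model; survival measured in treated vs vehicle control mice. Value = treated/control.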

[1] = dose: 12.5 mg/kg/injection, schedule: Q01DX009 (ip), vehicle: Klucel (hydroxypropylcellulose) (HPC)
[2] = dose: 25.0 mg/kg/injection, schedule: Q01DX009 (ip), vehicle: Klucel (hydroxypropylcellulose) (HPC)
[3] = dose: 50.0 mg/kg/injection, schedule: Q01DX009 (ip), vehicle: Klucel (hydroxypropylcellulose) (HPC)
[4] = dose: 100.0 mg/kg/injection, schedule: Q01DX009 (ip), vehicle: Klucel (hydroxypropylcellulose) (HPC)
[5] = dose: 100.0 mg/kg/injection, schedule: Q04DX003 (ip), vehicle: Klucel (hydroxypropylcellulose) (HPC)
[6] = dose: 200.0 mg/kg/injection, schedule: Q01DX009 (ip), vehicle: Klucel (hydroxypropylcellulose) (HPC)
[7] = dose: 200.0 mg/kg/injection, schedule: Q04DX003 (ip), vehicle: Klucel (hydroxypropylcellulose) (HPC)
[8] = dose: 400.0 mg/kg/injection, schedule: Q01DX009 (ip), vehicle: Klucel (hydroxypropylcellulose) (HPC)
[9] = dose: 400.0 mg/kg/injection, schedule: Q04DX003 (ip), vehicle: Klucel (hydroxypropylcellulose) (HPC)
[10] = dose: 100.0 mg/kg/injection, schedule: Q01DX001 (ip), vehicle: saline
[11] = dose: 200.0 mg/kg/injection, schedule: Q01DX001 (ip), vehicle: saline
[12] = dose: 100.0 mg/kg/injection, schedule: Q04DX002 (ip), vehicle: Klucel (hydroxypropylcellulose) (HPC)
[13] = dose: 200.0 mg/kg/injection, schedule: Q04DX002 (ip), vehicle: Klucel (hydroxypropylcellulose) (HPC)
[14] = dose: 25.0 mg/kg/injection, schedule: Q01DX009 (ip), vehicle: saline
[15] = dose: 50.0 mg/kg/injection, schedule: Q01DX009 (ip), vehicle: saline
[16] = dose: 100.0 mg/kg/injection, schedule: Q04DX003 (ip), vehicle: saline
[17] = dose: 100.0 mg/kg/injection, schedule: Q04DX002 (ip), vehicle: saline
[18] = dose: 200.0 mg/kg/injection, schedule: Q04DX002 (ip), vehicle: saline
[19] = dose: 400.0 mg/kg/injection, schedule: Q04DX002 (ip), vehicle: Klucel (hydroxypropylcellulose) (HPC)

Measured: T/C

C/C=C\c1ccc(OC(=O)c2ccc([N+](=O)[O-])cc2)c(OC)c1
inactive: dose: 100.0 mg/kg/injection, schedule: Q01DX001 (ip), vehicle: other 97 % of control | dose: 200.0 mg/kg/injection, schedule: Q01DX001 (ip), vehicle: other 106 % of control | dose: 400.0 mg/kg/injection, schedule: Q01DX001 (ip), vehicle: other 94 % of control

Nc1cccc2c1C(=O)c1cccc(NC(=O)c3ccccc3)c1C2=O
inactive: dose: 6.25 mg/kg/injection, schedule: Q01DX009 (ip), vehicle: Klucel (hydroxypropylcellulose) (HPC) 89 % of control | [1] 92 % of control | [2] 89 % of control | [3] 108 % of control | [4] 95 % of control | [5] 96 % of control | [6] 95 % of control | [7] 91 % of control | [8] 99 % of control | [9] 90 % of control

O=C(c1ccccc1)C(O)(CCP(=O)(c1ccccc1)c1ccccc1)c1ccccc1 (stereo unspecified)
inactive: dose: 75.0 mg/kg/injection, schedule: Q01DX001 (ip), vehicle: carboxymethylcellulose (CMC) 88 % of control | dose: 150.0 mg/kg/injection, schedule: Q01DX001 (ip), vehicle: carboxymethylcellulose (CMC) 96 % of control

[N-]=[N+]=NC1=NN2NNN=C2C(N)=C1
inactive: [10] 105 % of control | [11] 107 % of control

Cc1ccc(Cc2c(C=O)nc(N)[nH]c2=O)c2ccccc12
inactive: [12] 90 % of control | [13] 97 % of control

FCc1nc2nc(Cl)c(Cl)nc2[nH]1
inactive: dose: 12.5 mg/kg/injection, schedule: Q01DX009 (ip), vehicle: saline 100 % of control | [14] 96 % of control | [15] 88 % of control | [16] 97 % of control | dose: 200.0 mg/kg/injection, schedule: Q04DX003 (ip), vehicle: saline 97 % of control

COc1ccc(CC(C)N)cc1OC (stereo unspecified)
inactive: [17] 105 % of control | [18] 102 % of control

CCN(CC)c1ccc(/C=C/C=O)cc1
inactive: dose: 50.0 mg/kg/injection, schedule: Q01DX009 (ip), vehicle: gum acacia 103 % of control | dose: 100.0 mg/kg/injection, schedule: Q01DX009 (ip), vehicle: gum acacia 103 % of control | dose: 100.0 mg/kg/injection, schedule: Q04DX003 (ip), vehicle: gum acacia 93 % of control | dose: 200.0 mg/kg/injection, schedule: Q01DX009 (ip), vehicle: gum acacia 91 % of control | dose: 200.0 mg/kg/injection, schedule: Q04DX003 (ip), vehicle: gum acacia 96 % of control

OC1CC2c3ccccc3C1c1cccc[n+]12 (stereo unspecified)
inactive: [1] 98 % of control | dose: 12.5 mg/kg/injection, schedule: Q04DX003 (ip), vehicle: Klucel (hydroxypropylcellulose) (HPC) 94 % of control and 97 % of control | dose: 12.5 mg/kg/injection, schedule: Q04DX003 (ip), vehicle: saline 100 % of control | [2] 96 % of control | dose: 25.0 mg/kg/injection, schedule: Q04DX003 (ip), vehicle: Klucel (hydroxypropylcellulose) (HPC) 103 % of control and 95 % of control | dose: 25.0 mg/kg/injection, schedule: Q04DX003 (ip), vehicle: saline 103 % of control | [3] 94 % of control | dose: 50.0 mg/kg/injection, schedule: Q04DX003 (ip), vehicle: Klucel (hydroxypropylcellulose) (HPC) 94 % of control and 95 % of control | dose: 50.0 mg/kg/injection, schedule: Q04DX003 (ip), vehicle: saline 97 % of control | [16] 102 % of control

CCC1CCNCC1
inactive: [14] 113 % of control | [15] 102 % of control

Nc1cccc(OCCCCOc2cccc(N)c2)c1
inactive: dose: 50.0 mg/kg/injection, schedule: Q01DX009 (ip), vehicle: saline with Tween-80 93 % of control | dose: 100.0 mg/kg/injection, schedule: Q01DX009 (ip), vehicle: saline with Tween-80 101 % of control | dose: 200.0 mg/kg/injection, schedule: Q01DX009 (ip), vehicle: saline with Tween-80 107 % of control

O=C(NC(=S)Nc1cccc(Cl)c1)c1ccc(Cl)cc1Cl
inactive: dose: 100.0 mg/kg/injection, schedule: Q01DX001 (ip), vehicle: Klucel (hydroxypropylcellulose) (HPC) 87 % of control | [4] 87 % of control | [12] 115 % of control | [5] 97 % of control | [6] 97 % of control and 87 % of control | [13] 93 % of control | [7] 103 % of control | [8] 87 % of control and 92 % of control | [19] 94 % of control | [9] 108 % of control

CC(C)CNC(=O)Nc1ccc(Cl)c(Cl)c1
inactive: [10] 97 % of control | [11] 95 % of control | dose: 400.0 mg/kg/injection, schedule: Q01DX001 (ip), vehicle: saline 95 % of control

O=C(O)c1ccccc1N=Cc1ccc[nH]1
inactive: [12] 115 % of control | [13] 100 % of control | [19] 96 % of control

COc1ccc2ccc3ccc(OC)c(OC(C)=O)c3c2c1
inactive: dose: 100.0 mg/kg/injection, schedule: Q01DX001 (ip), vehicle: steriod suspending solution 94 % of control | dose: 200.0 mg/kg/injection, schedule: Q01DX001 (ip), vehicle: steriod suspending solution 105 % of control | dose: 400.0 mg/kg/injection, schedule: Q01DX001 (ip), vehicle: steriod suspending solution 108 % of control

Fc1cnc(OC23CC4CC(CC(C4)C2)C3)nc1OC12CC3CC(CC(C3)C1)C2
inactive: [5] 86 % of control | [7] 88 % of control | [9] 88 % of control

CCOC(=S)SCc1ccc([N+](=O)[O-])cc1
inactive: dose: 100.0 mg/kg/injection, schedule: Q04DX002 (ip), vehicle: gum acacia 97 % of control | dose: 200.0 mg/kg/injection, schedule: Q04DX002 (ip), vehicle: gum acacia 100 % of control | dose: 400.0 mg/kg/injection, schedule: Q04DX002 (ip), vehicle: gum acacia 97 % of control

O=C(O)c1cc(Cc2c[nH]c(=O)[nH]c2=O)ccc1O
inactive: dose: 50.0 mg/kg/injection, schedule: Q01DX005 (ip), vehicle: water 109 % of control | dose: 100.0 mg/kg/injection, schedule: Q01DX005 (ip), vehicle: water 98 % of control | dose: 200.0 mg/kg/injection, schedule: Q01DX005 (ip), vehicle: water 102 % of control

CC(C)(C)N
inactive: [17] 101 % of control | [18] 101 % of control | dose: 400.0 mg/kg/injection, schedule: Q04DX002 (ip), vehicle: saline 97 % of control

O=C(Nc1ccc(Oc2ccc(NC(=O)Nc3cccc(F)c3)cc2)cc1)Nc1cccc(F)c1
inactive: dose: 25.0 mg/kg/injection, schedule: Q01DX009 (ip), vehicle: carboxymethylcellulose (CMC) 89 % of control and 90 % of control | dose: 50.0 mg/kg/injection, schedule: Q01DX009 (ip), vehicle: carboxymethylcellulose (CMC) 86 % of control and 87 % of control | dose: 100.0 mg/kg/injection, schedule: Q01DX001 (ip), vehicle: carboxymethylcellulose (CMC) 93 % of control and 94 % of control | dose: 100.0 mg/kg/injection, schedule: Q01DX009 (ip), vehicle: carboxymethylcellulose (CMC) 100 % of control and 106 % of control and 86 % of control | dose: 100.0 mg/kg/injection, schedule: Q04DX002 (ip), vehicle: carboxymethylcellulose (CMC) 97 % of control and 99 % of control | dose: 100.0 mg/kg/injection, schedule: Q04DX003 (ip), vehicle: carboxymethylcellulose (CMC) 94 % of control and 105 % of control | dose: 200.0 mg/kg/injection, schedule: Q01DX001 (ip), vehicle: carboxymethylcellulose (CMC) 96 % of control and 105 % of control | dose: 200.0 mg/kg/injection, schedule: Q01DX009 (ip), vehicle: carboxymethylcellulose (CMC) 99 % of control | dose: 200.0 mg/kg/injection, schedule: Q04DX002 (ip), vehicle: carboxymethylcellulose (CMC) 95 % of control and 108 % of control | dose: 200.0 mg/kg/injection, schedule: Q04DX003 (ip), vehicle: carboxymethylcellulose (CMC) 94 % of control and 92 % of control | dose: 400.0 mg/kg/injection, schedule: Q01DX001 (ip), vehicle: carboxymethylcellulose (CMC) 96 % of control and 91 % of control | dose: 400.0 mg/kg/injection, schedule: Q01DX009 (ip), vehicle: carboxymethylcellulose (CMC) 93 % of control | dose: 400.0 mg/kg/injection, schedule: Q04DX002 (ip), vehicle: carboxymethylcellulose (CMC) 95 % of control and 89 % of control | dose: 400.0 mg/kg/injection, schedule: Q04DX003 (ip), vehicle: carboxymethylcellulose (CMC) 91 % of control and 92 % of control
